Reference: the NIST ThermoML archive (doi:10.1021/je060271a)
± gives the expanded uncertainty stated by the source.

Details: 323.15 K, Liquid, Vibrating tube method

CCCCCCCC(=O)OCC(COC(=O)CCCCCCC)(COC(=O)CCCCCCC)COC(=O)CCCCCCC [pentaerythritol tetraoctanoate]
Details	mass density [kg/m3]
26616 kPa	957.5 ± 1.2
26661 kPa	957.4 ± 1.2
26699 kPa	957.6 ± 1.2
26737 kPa	957.5 ± 1.2
26782 kPa	957.5 ± 1.2
26820 kPa	957.5 ± 1.2
26866 kPa	957.6 ± 1.2
26904 kPa	957.6 ± 1.2
26944 kPa	957.7 ± 1.2
26985 kPa	957.7 ± 1.2
27024 kPa	957.7 ± 1.2
27070 kPa	957.8 ± 1.2
27109 kPa	957.9 ± 1.2
27407 kPa	957.9 ± 1.2
27548 kPa	957.8 ± 1.2
27601 kPa	958 ± 1.2
27639 kPa	958.1 ± 1.2
27665 kPa	958.1 ± 1.2
27687 kPa	958.2 ± 1.2
27713 kPa	958.1 ± 1.2
27735 kPa	958.1 ± 1.2
27761 kPa	958.2 ± 1.2
27784 kPa	958.1 ± 1.2
27806 kPa	958.3 ± 1.2
27832 kPa	958.2 ± 1.2
27854 kPa	958.3 ± 1.2
27877 kPa	958.2 ± 1.2
27899 kPa	958.2 ± 1.2
27926 kPa	958.2 ± 1.2
27943 kPa	958.3 ± 1.2
27970 kPa	958.3 ± 1.2
28091 kPa	958.4 ± 1.2
28114 kPa	958.4 ± 1.2
28142 kPa	958.4 ± 1.2
28164 kPa	958.3 ± 1.2
28188 kPa	958.3 ± 1.2
28216 kPa	958.4 ± 1.2
28238 kPa	958.4 ± 1.2
28262 kPa	958.4 ± 1.2
28284 kPa	958.5 ± 1.2
28312 kPa	958.6 ± 1.2
28336 kPa	958.5 ± 1.2
28358 kPa	958.6 ± 1.2
28386 kPa	958.5 ± 1.2
28410 kPa	958.5 ± 1.2
28434 kPa	958.4 ± 1.2
28461 kPa	958.5 ± 1.2
28484 kPa	958.5 ± 1.2
28508 kPa	958.6 ± 1.2
28531 kPa	958.6 ± 1.2
28559 kPa	958.6 ± 1.2
28583 kPa	958.6 ± 1.2
28607 kPa	958.7 ± 1.2
28635 kPa	958.6 ± 1.2
28658 kPa	958.7 ± 1.2
28687 kPa	958.9 ± 1.2
28711 kPa	958.7 ± 1.2
28734 kPa	958.8 ± 1.2
28758 kPa	958.6 ± 1.2
28787 kPa	958.8 ± 1.2
28812 kPa	958.8 ± 1.2
28836 kPa	958.8 ± 1.2
28860 kPa	958.9 ± 1.2
28889 kPa	958.7 ± 1.2
28913 kPa	958.9 ± 1.2
28937 kPa	958.8 ± 1.2
28966 kPa	958.9 ± 1.2
28990 kPa	958.9 ± 1.2
29019 kPa	958.9 ± 1.2
29043 kPa	958.8 ± 1.2
29068 kPa	958.9 ± 1.2
29098 kPa	958.9 ± 1.2
29122 kPa	958.9 ± 1.2
29148 kPa	958.9 ± 1.2
29173 kPa	959.1 ± 1.2
29198 kPa	959 ± 1.2
29218 kPa	959 ± 1.2
29248 kPa	959 ± 1.2
29273 kPa	959 ± 1.2
29302 kPa	959.1 ± 1.2
29333 kPa	959.1 ± 1.2
29357 kPa	959.1 ± 1.2
29383 kPa	959.1 ± 1.2
29412 kPa	959.1 ± 1.2
29438 kPa	959.2 ± 1.2
29462 kPa	959.2 ± 1.2
29494 kPa	959.2 ± 1.2
29520 kPa	959.1 ± 1.2
29545 kPa	959.2 ± 1.2
29571 kPa	959.2 ± 1.2
29601 kPa	959.1 ± 1.2
29627 kPa	959.3 ± 1.2
29652 kPa	959.2 ± 1.2
29682 kPa	959.4 ± 1.2
29708 kPa	959.2 ± 1.2
29733 kPa	959.3 ± 1.2
29764 kPa	959.3 ± 1.2
29790 kPa	959.3 ± 1.2
29816 kPa	959.3 ± 1.2
29847 kPa	959.3 ± 1.2
29873 kPa	959.4 ± 1.2
29898 kPa	959.4 ± 1.2
29924 kPa	959.4 ± 1.2
29956 kPa	959.4 ± 1.2
29982 kPa	959.4 ± 1.2
30013 kPa	959.4 ± 1.2
30040 kPa	959.4 ± 1.2
30060 kPa	959.5 ± 1.2
30087 kPa	959.5 ± 1.2
30118 kPa	959.5 ± 1.2
30150 kPa	959.6 ± 1.2
30181 kPa	959.6 ± 1.2
30209 kPa	959.5 ± 1.2
30235 kPa	959.6 ± 1.2
30267 kPa	959.6 ± 1.2
30294 kPa	959.6 ± 1.2
30321 kPa	959.6 ± 1.2
30347 kPa	959.6 ± 1.2
30380 kPa	959.7 ± 1.2
30407 kPa	959.7 ± 1.2
30434 kPa	959.6 ± 1.2
30466 kPa	959.7 ± 1.2
30493 kPa	959.7 ± 1.2
30521 kPa	959.7 ± 1.2
30553 kPa	959.8 ± 1.2
30581 kPa	959.6 ± 1.2
30608 kPa	959.8 ± 1.2
30635 kPa	959.8 ± 1.2
30668 kPa	959.8 ± 1.2
30696 kPa	959.8 ± 1.2
30728 kPa	959.8 ± 1.2
30756 kPa	959.9 ± 1.2
30778 kPa	959.9 ± 1.2
30806 kPa	959.9 ± 1.2
30834 kPa	960 ± 1.2
30862 kPa	959.9 ± 1.2
30906 kPa	960 ± 1.2
30934 kPa	959.8 ± 1.2
30962 kPa	959.9 ± 1.2
30991 kPa	960 ± 1.2
31025 kPa	960 ± 1.2
31053 kPa	959.9 ± 1.2
31086 kPa	960 ± 1.2
31115 kPa	960 ± 1.2
31143 kPa	959.9 ± 1.2
31171 kPa	960.1 ± 1.2
31205 kPa	960.1 ± 1.2
31233 kPa	960.2 ± 1.2
